Measurements as given in patent publication US20040053822A1, “Inducing cellular immune responses to mage2/3 using peptide and nucleic acid compositions” (priority 2002, published 2004).

Key:
[1] = tested on: 0.221A2.1 cell line (peptide-loaded target); test: Primary CTL induction from normal donor PBMC, 51Cr release on peptide-pulsed targets; assay type: cell-based, human
Description: (§1) The melanoma cells were treated with 100 U/ml IFNγ (Genzyme) for 48 hours at 37° C. before use as targets in the ^51Cr release and in situ IFNγ assays.
The monocytes were purified by plating 10×10^6 PBMC/well in a 6-well plate. After 2 hours at 37° C., the non-adherent cells were removed by gently shaking the plates and aspirating the supernatants. The wells were washed a total of three times with 3 ml RPMI to remove most of the non-adherent and loosely adherent cells. Three ml of complete medium containing 50 ng/ml of GM-CSF and 1,000 U/ml of IL4 were then added to each well. DC were used for CTL induction cultures following 7 days of culture.
Induction of CTL with DC and Peptide: CD8+ T-cells were isolated by positive selection with Dynal immunomagnetic beads (Dynabeads® M-450) and the detacha-bead® reagent. Typically about 200-250×10^6 PBMC were processed to obtain 24×10^6 CD8^+ T-cells (enough for a 48-well plate culture). Briefly, the PBMCs were thawed in RPMI with 30 μg/ml DNAse, washed once with PBS containing 1% human AB serum and resuspended in PBS/1% AB serum at a concentration of 20×10^6 cells/ml. The magnetic beads were washed 3 times with PBS/AB serum, added to the cells (140 μl beads/20×10^6 cells) and incubated for 1 hour at 4° C. with continuous mixing. The beads and cells were washed 4× with PBS/AB serum to remove the nonadherent cells and resuspended at 100×10^6 cells/ml (based on the original cell number) in PBS/AB serum containing 100 μ/ml detacha-bead® reagent and 30 μg/ml DNAse. The mixture is incubated for 1 hour at room temperature with continuous mixing. The beads were washed again with PBS/AB/DNAse to collect the CD8+ T-cells. The DC were collected and centrifuged at 1300 rpm for 5-7 minutes, washed once with PBS with 1% BSA, counted and pulsed with 40 μg/ml of peptide at a cell concentration of 1-2×10^6/ml in the presence of 3 μg/ml β2- microglobulin for 4 hours at 20° C. The DC were then irradiated (4,200 rads), washed 1 time with medium and counted again.
Setting up induction cultures: 0.25 ml cytokine-generated DC (@1×10^5 cells/ml) were co-cultured with 0.25 ml of CD8+ T-cells (@2×10^6 cell/ml) in each well of a 48-well plate in the presence of 10 ng/ml of IL-7. rHuman IL10 was added the next day at a final concentration of 10 ng/ml and rhuman IL2 was added 48 hours later at 10 IU/ml.
Restimulation of the induction cultures with peptide-pulsed adherent cells: Seven and fourteen days after the primary induction the cells were restimulated with peptide-pulsed adherent cells. The PBMCS were thawed and washed twice with RPMI and DNAse. The cells were resuspended at 5×10^6 cells/ml and irradiated at ˜4200 rads. The PBMCs were plated at 2×10^6 in 0.5 ml complete medium per well and incubated for 2 hours at 37° C. The plates were washed twice with RPMI by tapping the plate gently to remove the nonadherent cells and the adherent cells pulsed with 10 μg/ml of peptide in the presence of 3 μg/ml β2 microglobulin in 0.25 ml RPMI/5% AB per well for 2 hours at 37° C. Peptide solution from each well was aspirated and the wells were washed once with RPMI. Most of the media was aspirated from the induction cultures (CD8+ cells) and brought to 0.5 ml with fresh media. The cells were then transferred to the wells containing the peptide-pulsed adherent cells. Twenty four hours later rhuman IL10 was added at a final concentration of 10 ng/ml and rhuman IL2 was added the next day and again 2-3 days later at 50 IU/ml (Tsai et al., Critical Reviews in Immunology 18(l-2):65-75, 1998). Seven days later the cultures were assayed for CTL activity in a ^51Cr release assay. In some experiments the cultures were assayed for peptide-specific recognition in the in situ IFNγ ELISA at the time of the second restimulation followed by assay of endogenous recognition 7 days later. After expansion, activity was measured in both assays for a side by side comparison. […]

[2] = tested on: melanoma cell lines (624 mel and 888 mel); test: Primary CTL induction, 51Cr release on tumor targets (endogenous recognition); assay type: cell-based, human
Description: as §1
Restimulation of the induction cultures with peptide-pulsed adherent cells: Seven and fourteen days after the primary induction the cells were restimulated with peptide-pulsed adherent cells. The PBMCS were thawed and washed twice with RPMI and DNAse. The cells were resuspended at 5×10^6 cells/ml and irradiated at ˜4200 rads. The PBMCs were plated at 2×10^6 in 0.5 ml complete medium per well and incubated for 2 hours at 37° C. The plates were washed twice with RPMI by tapping the plate gently to remove the nonadherent cells and the adherent cells pulsed with 10 μg/ml of peptide in the presence of 3 μg/ml β2 microglobulin in 0.25 ml RPMI/5% AB per well for 2 hours at 37° C. Peptide solution from each well was aspirated and the wells were washed once with RPMI. Most of the media was aspirated from the induction cultures (CD8+ cells) and brought to 0.5 ml with fresh media. The cells were then transferred to the wells containing the peptide-pulsed adherent cells. Twenty four hours later rhuman IL10 was added at a final concentration of 10 ng/ml and rhuman IL2 was added the next day and again 2-3 days later at 50 IU/ml (Tsai et al., Critical Reviews in Immunology 18(l-2):65-75, 1998). Seven days later the cultures were assayed for CTL activity in a ^51Cr release assay. In some experiments the cultures were assayed for peptide-specific recognition in the in situ IFNγ ELISA at the time of the second restimulation followed by assay of endogenous recognition 7 days later. After expansion, activity was measured in both assays for a side by side comparison.
Seven days after the second restimulation, cytotoxicity was determined in a standard (5 hr) ^51Cr release assay by assaying individual wells at a single E:T. Peptide-pulsed targets were prepared by incubating the cells with 10 μg/ml peptide overnight at 37° C.
Adherent target cells were removed from culture flasks with trypsin-EDTA. Target cells were labelled with 200 μCi of ^51Cr sodium chromate (Dupont, Wilmington, Del.) for 1 hour at 37° C. […] Target cells.(100 μl) and 100 μl of effectors were plated in 96 well round-bottom plates and incubated for 5 hours at 37° C. At that time, 100 μl of supernatant were collected from each well and percent lysis was determined according to the formula: [(cpm of the test sample−cpm of the spontaneous ^51Cr release sample)/(cpm of the maximal ^51Cr release sample−cpm of the spontaneous ^51Cr release sample)]×100. Maximum and spontaneous release were determined by incubating the labelled targets with 1% Trition X-100 and media alone, respectively.
CTL Expansion. […] The cells were split if the cell concentration exceeded 1×10^6/ml and the cultures were assayed between days 13 and 15 at E:T ratios of 30, 10, 3 and 1:1 in the ^51Cr release assay or at 1×10^6/ml in the in situ IFNγ assay using the same targets as before the expansion.
The A2-supermotif cross-reactive binding peptides that were selected for further evaluation were tested in the cellular assay for the ability to induce peptide-specific CTL in normal individuals.

HLA-A*0201 = HLA-A*0201 (Homo sapiens, UniProt P04439, D140Y/D185E/D98H/E176V/E277Q/G131W/G231S/I119V/I121R/I166T/I218V/L300P/L318F/N151K/N90K/P208A/P217A/Q86G/Q94H/R138H/R169H/T345S); test: Purified HLA class I peptide binding assay, A*0201; settings: binding affinity, A2 supermotif peptides and analogs
HLA-A*0202 = HLA-A*0202 (Homo sapiens, UniProt P04439, D140Y/D185E/D98H/E176V/E277Q/G131W/G231S/I119L/I121R/I166T/I218V/L180W/L300P/L318F/N151K/N90K/P208A/P217A/Q67R/Q86G/Q94H/R138H/R169H/T345S); test: Purified HLA class I peptide binding assay, A*0202; settings: binding affinity, A2 supermotif peptides and analogs
HLA-A*0203 = HLA-A*0203 (Homo sapiens, UniProt P04439, A173T/D140Y/D185E/D98H/E277Q/G131W/G231S/I119V/I121R/I166T/I218V/L180W/L300P/L318F/N151K/N90K/P208A/P217A/Q86G/Q94H/R138H/R169H/T345S); test: Purified HLA class I peptide binding assay, A*0203; settings: binding affinity, A2 supermotif peptides and analogs
HLA-A*6802 = HLA-A*6802 (Homo sapiens, UniProt P04439, A269V/D140Y/D185E/E176V/E277Q/E87N/F33Y/G231S/I121R/I166T/I218V/L180W/L300P/L318F/N151K/P208A/P217A/Q86R/R138H/R169H/S129P/T345S/V36M); test: Purified HLA class I peptide binding assay, A*6802; settings: binding affinity, A2 supermotif peptides and analogs
[3] = Number of donors yielding a positive response/total tested
[4] = number of donors positive over the total number of donors tested
[5] = number of donors positive over total tested, tumor targets

CC[C@H](C)[C@H](NC(=O)[C@@H](N)CCCCN)C(=O)N[C@@H](Cc1c[nH]c2ccccc12)C(=O)N[C@@H](CCC(=O)O)C(=O)N[C@@H](CCC(=O)O)C(=O)N[C@@H](CC(C)C)C(=O)N[C@@H](CO)C(=O)N[C@H](C(=O)N[C@@H](CC(C)C)C(=O)O)C(C)C
CTL Wild-type [1, 3]: 3/4
CTL Wild-type [1, 4]: 3/4
CTL Tumor [2, 5]: 0/3^

CC[C@H](C)[C@H](NC(=O)CNC(=O)[C@H](Cc1ccccc1)NC(=O)[C@@H](NC(=O)[C@@H](N)CC(C)C)C(C)C)C(=O)N[C@@H](CCC(=O)O)C(=O)N[C@H](C(=O)N[C@H](C(=O)N[C@@H](CCC(=O)O)C(=O)N[C@H](C(=O)O)C(C)C)C(C)C)C(C)C
CTL Wild-type [1, 4]: 4/4
CTL Tumor [2, 5]: 0/3^

CC(C)C[C@H](NC(=O)[C@H](Cc1ccccc1)NC(=O)[C@H](Cc1c[nH]cn1)NC(=O)[C@@H](NC(=O)[C@H](CC(C)C)NC(=O)[C@H](CCC(=O)O)NC(=O)[C@H](C)NC(=O)[C@H](CC(C)C)NC(=O)[C@@H](N)CCCCN)C(C)C)C(=O)O
IC50 (HLA-A*0201): 20 nM
IC50 (HLA-A*0202): 6 nM
IC50 (HLA-A*0203): 5.9 nM
IC50 (HLA-A*6802): 400 nM

CSCC[C@H](NC(=O)[C@@H](N)CCCCN)C(=O)N[C@H](C(=O)N[C@@H](CCC(=O)O)C(=O)N[C@@H](CC(C)C)C(=O)N[C@H](C(=O)N[C@@H](Cc1c[nH]cn1)C(=O)N[C@@H](Cc1ccccc1)C(=O)N[C@@H](CC(C)C)C(=O)N[C@@H](CC(C)C)C(=O)N[C@@H](CC(C)C)C(=O)O)C(C)C)C(C)C
CTL Wild-type [1, 4]: 1/1
CTL Tumor [2, 5]: 0/1^

CC[C@H](C)[C@H](NC(=O)CNC(=O)[C@H](Cc1ccccc1)NC(=O)[C@@H](NC(=O)[C@H](CC(C)C)NC(=O)[C@@H](N)CCC(N)=O)C(C)C)C(=O)N[C@@H](CCC(=O)O)C(=O)N[C@@H](CC(C)C)C(=O)N[C@@H](CCSC)C(=O)N[C@@H](CCC(=O)O)C(=O)N[C@H](C(=O)O)C(C)C
CTL Tumor ([2]; donors positive over total tested, positive result seen after the second restim.): 1/3^2

CSCC[C@H](NC(=O)[C@@H](N)CCCCN)C(=O)N[C@H](C(=O)N[C@@H](CCC(=O)O)C(=O)N[C@@H](CC(C)C)C(=O)N[C@H](C(=O)N[C@@H](Cc1c[nH]cn1)C(=O)N[C@@H](Cc1ccccc1)C(=O)N[C@@H](CC(C)C)C(=O)N[C@@H](CC(C)C)C(=O)O)C(C)C)C(C)C
CTL Wild-type [1, 4]: 1/1
CTL Tumor [2, 5]: 0/1^

CC(C)C[C@H](NC(=O)[C@H](Cc1ccc(O)cc1)NC(=O)[C@H](CCC(=O)O)NC(=O)[C@H](CO)NC(=O)[C@H](C)NC(=O)[C@@H](N)CCCCN)C(=O)N[C@@H](CCC(N)=O)C(=O)N[C@@H](CC(C)C)C(=O)N[C@H](C(=O)O)C(C)C
CTL Wild-type [1, 4]: 2/4
CTL Tumor [2, 5]: 0/2^

CC[C@H](C)[C@H](NC(=O)CNC(=O)[C@H](Cc1ccccc1)NC(=O)[C@@H](NC(=O)[C@H](CC(C)C)NC(=O)[C@H](CCC(N)=O)NC(=O)[C@H](CC(C)C)NC(=O)[C@@H](N)Cc1ccc(O)cc1)C(C)C)C(=O)N[C@@H](CCC(=O)O)C(=O)N[C@H](C(=O)O)C(C)C [YLQLVFG1EV]
CTL Wild-type [1, 3]: 313

CC(C)C[C@H](NC(=O)[C@H](CC(C)C)NC(=O)[C@H](Cc1ccccc1)NC(=O)[C@H](Cc1c[nH]cn1)NC(=O)[C@@H](NC(=O)[C@H](CC(C)C)NC(=O)[C@H](CCC(=O)O)NC(=O)[C@H](C)NC(=O)[C@@H](NC(=O)[C@@H](N)CCCCN)C(C)C)C(C)C)C(=O)O
CTL Wild-type [1, 4]: 0/1
CTL Tumor [2, 5]: 0/1^

CC[C@H](C)[C@H](N)C(=O)N[C@@H](CCSC)C(=O)N1CCC[C@H]1C(=O)N[C@@H](CCCCN)C(=O)N[C@@H](C)C(=O)NCC(=O)N[C@@H](CC(C)C)C(=O)N[C@@H](CC(C)C)C(=O)N[C@H](C(=O)N[C@H](C(=O)N[C@H](C(=O)O)C(C)C)[C@@H](C)CC)[C@@H](C)CC
CTL Wild-type [1, 4]: 3/4
CTL Tumor [2, 5]: 0/3^

CSCC[C@H](NC(=O)[C@@H](N)CCCCN)C(=O)N[C@H](C(=O)N[C@@H](CCC(=O)O)C(=O)N[C@@H](CC(C)C)C(=O)N[C@H](C(=O)N[C@@H](Cc1c[nH]cn1)C(=O)N[C@@H](Cc1ccccc1)C(=O)N[C@@H](CC(C)C)C(=O)O)C(C)C)C(C)C
CTL Wild-type [1, 4]: 1/1
CTL Tumor [2, 5]: 0/1^
